The nature of series [1]: Clearance in CD-1 mouse at 1 mg/kg, iv by LC-MS/MS analysis. It counts as ADME, organism-based. The settings on record: in vivo.
A short description of series [2]: Volume of distribution in CD-1 mouse at 1 mg/kg, iv by LC-MS/MS analysis. It counts as ADME, organism-based. The conditions noted are these: in vivo.
The nature of series [3]: Terminal half life in CD-1 mouse at 1 mg/kg, iv by LC-MS/MS analysis. The conditions noted are these: in vivo, read-out: beta t1/2 (converted). It counts as ADME, organism-based.
A short description of series [4]: Apparent permeability across apical to basal membrane in human Caco-2 cells measured after 2 hrs by LC-MS/MS analysis. It counts as ADME, cell-based. On the technique in general: Caco-2 monolayers are a common model of the intestinal barrier.
Series [5] can be described thus: Stability in human hepatocytes assessed as intrinsic clearance measured upto 120 minutes by LC/MS/MS analysis. It counts as ADME, cell-based, Hepatocyte. The conditions noted are these: time >=60 min, read-out: CLH.
The nature of series [6]: Stability in mouse hepatocytes assessed as intrinsic clearance measured upto 60 minutes by LC/MS/MS analysis. It counts as ADME, cell-based, Hepatocyte. The conditions noted are these: read-out: CLH.

Consider `CC(=O)N(C)C1CCN(c2cc(F)cc(NC(=O)c3cc4c(F)ccc(C)c4[nH]3)c2)C1` (centres undefined), for which the clearance (commonly a measure of how efficiently the substance is removed, as volume per time) in series [1] was determined as 24.2 mL/min/kg. For the same compound, the Vd – broadly, a proportionality between amount in the body and measured concentration, not a real space – in series [2] came to 1.04 L/kg. Besides, the half-life in series [3] is 42 min.

On to `Cc1ccc(F)c2cc(C(=O)N[C@@H]3CCC[C@H](N4CC[C@H](N(C)S(C)(=O)=O)C4)C3)[nH]c12`, for which the clearance in series [1] is 24.2 mL/min/kg. Moreover, the Papp A→B (commonly the apparent permeability from the apical to the basolateral side of a cell layer) at 2 h in series [4] came out at 3.2 ×10⁻⁶ cm/s. For the same compound, the Vd in series [2] was determined as 1.04 L/kg. Also, the half-life in series [3] is 42 min.

As to `CC.Cc1ccc(F)c2cc(C(=O)N[C@@H]3CCC[C@H](N4CC[C@@H](N(C)S(C)(=O)=O)C4)C3)[nH]c12`, the values for the CLint scaled in series [5] and in series [6] were 21.1 mL/min/kg and 235 mL/min/kg, respectively.

Values taken from ChEMBL document CHEMBL5038620, “Discovery of a First-in-Class Inhibitor of the Histone Methyltransferase SETD2 Suitable for Preclinical Studies” (ACS Med Chem Lett, 2021).
